Source: publication PMC10789823, “Synthesis, structural characterizations, in vitro biological evaluation and computational investigations of pyrazole derivatives as potential antidiabetic and antioxidant agents” (Scientific Reports, 2024)
Where “and” joins values, the source holds several entries; their conditions need not be identical. Equal entries are not always repeated. Where two headings read alike, the source gives them in different places.

Key:
[1] = Ferric reducing power assay (FRAP); conditions: mean ± standard deviation (n = 3)
Protocol: (§1) The antioxidant activities of the title compound were determined in vitro by DPPH, ABTS, FRAP and hydrogen peroxide activity (H2O2) methods according to the procedures described in our previous works.
The ferric ion (Fe^3+) reducing power assay was performed as previously described by (Amarowicz et al., 2004) with minor modifications. Briefly, 1 mL of the samples were mixed with 2.5 mL of 0.2 M sodium phosphate buffer (pH 6.6) and 2.5 mL of 1% potassium ferricyanide. The mixtures were incubated in a […] water bath at 50 °C for 20 min. Then, 2.5 mL of 10% trichloroacetic acid was added and centrifuged at 3000 rpm for 10 min. Finally, 2.5 mL of the supernatant were mixed with 2.5 mL distilled water and 0.5 mL FeCl3 solution (0.1%, w/v). The absorbance was measured at 700 nm and the results were expressed as IC50.

[2] = Hydrogen peroxide activity (H2O2); conditions: mean ± standard deviation (n = 3)
Protocol: as §1
The hydrogen-donating activity, measured utilizing hydrogen peroxide radicals as the hydrogen acceptor was performed as previously described by (Muruhan et al., 2013) with minor modifications. Briefly a solution of hydrogen peroxide (40 mM) was prepared in phosphate buffer (pH 7.4). Different concentrations of the prepared compounds (62.5, 31.25, 15.62, 7.81 and 3.9 μM) were added to a hydrogen peroxide solution (0.6 mL, 40 mM). The absorbance of hydrogen peroxide at 230 nm was determined after 10 min against a blank solution containing phosphate buffer without hydrogen peroxide (or ascorbic acid as the control). The hydrogen peroxide percentage activity was then calculated using the following equation: […]

ABTS assay = conditions: for IC50: called SC50, mean ± standard deviation (n = 3)
Protocol: as §1
The ABTS assay was performed as previously described by (Tuberoso et al., 2013). ABTS+ radical was generated by oxidation of ABTS with potassium persulfate. The blue-green ABTS was produced through the reaction between 2 mM ABTS and 70 mM potassium persulfate in water. The mixture was left to stand in the dark for 12–16 h before use. The ABTS+ solution as diluted with methanol to an absorbance of 0.700 ± 0.005 at 734 nm. Then 2 mL of diluted ABTS solution were mixed with 100 μL of samples and absorbance was measured after 1 min incubation at room temperature. A standard curve was obtained by using Ascorbic acid as standard solution.

[3] = DPPH radical scavenging activity assay; conditions: called SC50; mean ± standard deviation (n = 3)
Protocol: as §1
The DPPH radical activity assay was performed following (Huang et al., 2011) with minor modification. The method using the stable free radical 2,2-diphenyl-1-picrylhydrazyl (DPPH) is based upon the reduction of DPPH free radical. Different concentrations of the prepared compounds (500, 250, 125, 62.5, 31.25 µM) were tested. The DPPH solution was prepared by dissolving 3,9mg of DPPH in 50 mL of the methanol. Then, 50µL of each concentration was added to 1,2ml of methanol and 250µL of the prepared DPPH solution […]. The reaction mixture incubated in the dark for 30 min. The control was prepared by adding 1,25 mL of methanol to 250 µL of DPPH. Ascorbic acid was used as the standard. The absorbances of solutions were spectrophotometrically examined at 517 nm. The radical activity is expressed as inhibition ratio of initial concentration of DPPH radical and is calculated according to the formula: […]
Where AbsDPPH is the absorbance of DPPH radical and Abssample is the absorbance in the presence of sample.

[4] = molecular target: α-glucosidase from Saccharomyces cerevisiae (Saccharomyces cerevisiae, UniProt P53341); test: biochemical
α-glucosidase from Saccharomyces cerevisiae, sequence (P53341 whole entry): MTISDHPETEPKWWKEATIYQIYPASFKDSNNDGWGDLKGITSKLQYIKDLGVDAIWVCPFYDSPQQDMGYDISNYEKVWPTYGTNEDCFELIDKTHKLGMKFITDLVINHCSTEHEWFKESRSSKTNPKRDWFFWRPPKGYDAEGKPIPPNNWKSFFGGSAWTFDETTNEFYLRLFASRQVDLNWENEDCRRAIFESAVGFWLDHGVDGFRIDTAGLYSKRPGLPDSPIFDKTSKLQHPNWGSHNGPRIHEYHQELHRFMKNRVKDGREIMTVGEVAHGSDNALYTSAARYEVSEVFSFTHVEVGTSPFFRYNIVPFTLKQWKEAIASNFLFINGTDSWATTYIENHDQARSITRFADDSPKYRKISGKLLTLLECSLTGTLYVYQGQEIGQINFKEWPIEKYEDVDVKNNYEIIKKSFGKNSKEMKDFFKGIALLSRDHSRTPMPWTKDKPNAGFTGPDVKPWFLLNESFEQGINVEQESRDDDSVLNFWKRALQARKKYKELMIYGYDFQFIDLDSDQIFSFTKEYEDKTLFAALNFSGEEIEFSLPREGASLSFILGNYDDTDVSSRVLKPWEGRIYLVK
Protocol: (§2) The α-glucosidase and α-amylase inhibitory activities of compounds Pyz-1 and Pyz-2 were determined using the method described in our previous works[48],[49].
(§3) All other reagents and standards were of analytical reagent grade.
The α-glucosidase inhibitory activity was performed by using (ρ-nitrophenyl-α-D-glucopyranoside) as a substrate according to the method described by (Kee et al., 2013),with minor modifications. The α-glucosidase method is based on the inhibition of the enzyme. α-glucosidase, which hydrolyses (4-Nitrophenyl-α-d-glucopyranoside) to α-d-glucopyranose and P-nitrophenol of yellow color. The target compound was dissolved in DMSO and all the evaluated samples were dissolved in tampon phosphate at a series of concentrations. A mixture of 150 µl of the sample and 100 µl of PBS (pH = 6.7) containing the α- glucosidase enzyme solution (0.1U/ml) was incubated at 37 ° C for 10 min, after incubation, 200µl of pNPG (1 mM) was added to the mixture. The mixtures were incubated at 37 °C for 30 min. Then 1 ml Na2CO3 (0.1 M) was added to stop the reaction. The absorbance was measured at 405 nm. The results were expressed in percentage of inhibition according to the following formula: […]
The same reaction mixture without α-glucosidase was used as negative control.

[5] = molecular target: α-amylase from Bacillus licheniformis (Bacillus licheniformis, UniProt P06278); test: biochemical; conditions: mean ± standard deviation (n = 3)
α-amylase from Bacillus licheniformis, sequence (P06278 30-512): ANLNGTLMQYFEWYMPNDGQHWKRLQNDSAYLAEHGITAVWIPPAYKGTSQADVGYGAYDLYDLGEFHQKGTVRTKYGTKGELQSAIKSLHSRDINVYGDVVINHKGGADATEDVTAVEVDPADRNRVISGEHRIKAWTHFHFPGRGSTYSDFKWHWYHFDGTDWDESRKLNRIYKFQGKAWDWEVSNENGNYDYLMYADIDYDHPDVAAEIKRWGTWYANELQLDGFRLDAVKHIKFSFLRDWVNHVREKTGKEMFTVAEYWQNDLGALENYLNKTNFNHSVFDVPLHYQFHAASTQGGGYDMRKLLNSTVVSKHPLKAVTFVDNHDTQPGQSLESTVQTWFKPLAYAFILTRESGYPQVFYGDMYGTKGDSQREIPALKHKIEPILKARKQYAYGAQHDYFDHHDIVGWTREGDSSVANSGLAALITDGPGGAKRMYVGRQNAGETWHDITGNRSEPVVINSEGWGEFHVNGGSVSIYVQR
Protocol: as §2, §3
The α-amylase assay was performed by reacting various concentrations of compounds with α-amylase and starch solution by following the DNSA method with minor modifications (Hashim et al., 2013). The evaluated samples were dissolved in tampon phosphate with various concentrations. The sample solution (10μL) was mixed with 240μL (sodium phosphate buffer 0.02M pH6.9) containing α-amylase (240U/mL), and incubated at 37°C for 20 min. After pre-incubation, 250 µL of 1% starch solution were added to each tube and incubated for 15 min. 1ml of dinitrosalicylic acid was added to stop the reaction, then incubate the solution in a water bath at 90°C for 10 min. The mixture was diluted with 1 mL deionized water and the absorbance (Abs) was measured at 540 nm.
The IC50 values were determined by the percentage of inhibitions at different concentrations.

xanthine oxidase = xanthine oxidase (Homo sapiens, UniProt P47989); test: Xanthine oxidase inhibition assay (XO); type: biochemical; conditions: mean ± standard deviation (n = 3)
xanthine oxidase, sequence (P47989 whole entry, species assumed): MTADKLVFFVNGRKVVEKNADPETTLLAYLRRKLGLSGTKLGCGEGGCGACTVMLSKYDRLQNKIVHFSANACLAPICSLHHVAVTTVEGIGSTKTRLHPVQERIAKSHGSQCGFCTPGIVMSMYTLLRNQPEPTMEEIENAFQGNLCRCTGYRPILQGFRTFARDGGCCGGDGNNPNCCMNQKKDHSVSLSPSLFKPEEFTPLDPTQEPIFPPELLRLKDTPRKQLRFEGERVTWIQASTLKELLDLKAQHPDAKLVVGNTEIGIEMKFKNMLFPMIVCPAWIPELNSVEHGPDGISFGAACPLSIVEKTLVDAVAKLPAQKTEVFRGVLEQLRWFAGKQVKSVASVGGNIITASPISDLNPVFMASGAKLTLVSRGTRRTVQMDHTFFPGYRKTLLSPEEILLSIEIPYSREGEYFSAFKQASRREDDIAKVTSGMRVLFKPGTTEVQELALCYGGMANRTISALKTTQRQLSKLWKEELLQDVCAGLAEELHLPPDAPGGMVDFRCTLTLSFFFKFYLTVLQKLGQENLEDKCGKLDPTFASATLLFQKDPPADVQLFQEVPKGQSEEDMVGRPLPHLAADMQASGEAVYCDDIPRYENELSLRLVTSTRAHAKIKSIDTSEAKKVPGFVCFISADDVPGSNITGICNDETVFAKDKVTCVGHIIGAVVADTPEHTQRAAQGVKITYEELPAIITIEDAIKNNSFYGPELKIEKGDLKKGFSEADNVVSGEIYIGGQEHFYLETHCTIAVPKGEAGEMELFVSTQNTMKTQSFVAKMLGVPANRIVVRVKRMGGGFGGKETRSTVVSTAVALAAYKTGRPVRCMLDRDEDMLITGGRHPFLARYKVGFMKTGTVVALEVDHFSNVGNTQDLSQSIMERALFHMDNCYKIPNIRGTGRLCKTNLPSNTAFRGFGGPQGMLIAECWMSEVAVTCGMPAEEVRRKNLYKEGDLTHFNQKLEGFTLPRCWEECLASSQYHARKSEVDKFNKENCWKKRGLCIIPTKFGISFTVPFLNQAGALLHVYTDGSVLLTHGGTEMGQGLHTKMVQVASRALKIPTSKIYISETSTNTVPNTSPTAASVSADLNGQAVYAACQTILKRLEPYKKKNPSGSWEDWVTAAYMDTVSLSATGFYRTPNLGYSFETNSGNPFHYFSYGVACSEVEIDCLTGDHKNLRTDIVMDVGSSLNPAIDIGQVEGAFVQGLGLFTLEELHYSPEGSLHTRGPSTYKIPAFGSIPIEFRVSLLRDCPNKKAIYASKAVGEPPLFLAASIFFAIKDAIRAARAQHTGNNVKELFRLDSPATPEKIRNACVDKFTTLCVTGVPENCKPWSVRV
Protocol: The xanthine oxidase inhibitory activity of Pyz-1 and Pyz-2 was performed following the method described by Kostić et al.[50], with minor modifications. The samples were prepared at series of concentrations. 1.95 ml of 5 mM phosphate buffer pH 7.5 and 50 µl of enzyme solution was added to the mixtures. After pre-incubation at 25 °C for 15 min. 1 ml of substrate was added.

[6] = mean ± standard deviation (n = 3), read-out: IC50 α-Glucosidase

Question: What does the source list for `O=C1O[C@H]([C@@H](O)CO)C(O)=C1O` [Ascorbic acid, reference compound]?
Answer: IC50 [1]: 88.12 ± 0.23 µM; IC50 [2]: 7.45 ± 1.11 µM; IC50 (ABTS assay): 22.5 ± 0.59 µM; IC50 [3]: 78.11 ± 0.68 µM

Question: What does the source list for `Cc1cc(C(=O)NN)[nH]n1` [Compound 1, 5-methyl-1H-pyrazole-3-carbohydrazide]?
Answer: IC50 [4, 6]: 279 ± 4.03 µM; IC50 [5]: > 500 µM

Question: For `Cc1cc(C(=O)NNC(=O)Nc2ccccc2)n[nH]1` [Pyz-1, 2-(5-methyl-1H-pyrazole-3-carbonyl)-N-phenylhydrazine-1-carboxamide], which IC50 [4] is on record?
Answer: Its IC50 is 75.62 ± 0.56 µM.

Question: What about the IC50 [1] of the same compound?
Answer: The IC50 was 100.2 ± 0.79 µM.

Question: And the IC50 [2]?
Answer: The IC50 was 31.5 ± 0.92 µM.

Question: What about the IC50 [5] of the same compound?
Answer: Its IC50 is 120 µM and 119 µM.

Question: What about the IC50 (ABTS assay) of the same compound?
Answer: The IC50 was 79.77 ± 0.45 µM.

Question: What about the IC50 (xanthine oxidase) of the same compound?
Answer: Its IC50 is 24.3 ± 0.78 µM.

Question: What about the IC50 [3] of the same compound?
Answer: Its IC50 is 238.5 ± 1.12 µM.

Question: With `Cc1cc(-c2nnc(S)n2N)n[nH]1` [Pyz-2, 4-amino-5-(5-methyl-1H-pyrazol-3-yl)-4H-1,2,4-triazole-3-thiol] as the compound, how does the IC50 [4, 6] read?
Answer: Its IC50 is 95.85 ± 0.92 µM.

Question: And the IC50 [1]?
Answer: Its IC50 is 62.62 ± 0.49 µM.

Question: What about the IC50 [2] of the same compound?
Answer: Its IC50 is 24.8 ± 1.23 µM.

Question: And the IC50 [5]?
Answer: The IC50 was 119 µM and 120 µM.

Question: What about the IC50 (ABTS assay) of the same compound?
Answer: The IC50 was 20.5 ± 0.87 µM.

Question: What about the “ABTS scavenging activity relative to Pyz-1” value (ABTS assay; ratio of SC50 values, versus Pyz-1) of the same compound?
Answer: Its value is 3.88 fold.

Question: What about the IC50 (xanthine oxidase) of the same compound?
Answer: The IC50 was 10.8 ± 0.54 µM.

Question: And the IC50 [3]?
Answer: Its IC50 is 139 ± 1.45 µM.
